From patent publication US20240336630A1, “MAP4K1 INHIBITORS” (Blueprint Medicines Corporation, priority 2021, published 2024)

Assays:
[1] = system: Primary T Cell (expanded CD3+ T cells); experiment: T cell enhancement of cytokines: IL2 measurement (HTRF) in expanded CD3+ T cells stimulated with anti-CD3/anti-CD28; format: cell-based; details: Homo sapiens, plate-bound anti-CD3 and soluble anti-CD28, 24 h, read-out: IL-2 Primary T Cell EC50
Method: T cells are isolated from whole blood of healthy donors by immunomagnetic negative selection following manufacture's protocol (StemCell Technologies, human T cell isolation kit). Purity of isolated cells is assessed by flow cytometry and yields 95-98% CD3^+ T cells. For expansion of T cells, 1×10^6 cells/well are plated in serum free cell expansion media (ThermoFisher) containing 30U of recombinant human IL2 (R&D) and stimulated with 25 ul of CD3/CD28 beads (Invitrogen) in 24 well plates for 3-4 days. T cells are then expanded in 175 cm flasks and maintained at a cell density of 1 to 2.5×10^6 cells/ml days by addition of ⅔ of fresh media every 2-3 days. After 10-14 days, cells are frozen in BamBanker freezing media (Thermo) and stored in liquid nitrogen.
For IL2 measurement, expanded CD3^+ T cells are dispensed at 100K cells/well (cultured in X-VIVO 10 Serum-free media) and are stimulated with plate-bound anti-CD3 and soluble anti-CD28 in the presence of vehicle or compound of the disclosure at various concentrations for 24 h. As outlined in the manufacturer's protocol (Cisbio), 16 μL of conditioned media is transferred to a white 384-well low volume plate. Following a 24 h incubation with the anti-IL2 antibodies, the homogenous time resolved fluorescence (HTRF) is measured.

MAP4K1 (HPK1) = target: T1, MAP4K1 (HPK1) (Homo sapiens, UniProt Q92918); experiment: Inhibition of MAP4K1 biochemical enzymatic activity (EZReader 2 electrophoretic mobility shift); details: HPK1 (Invitrogen), S6K2tide 1.5 μM, 120 min; ATP 26 μM or 1000 μM, not stated which for Table 3
T1 construct: purchased Invitrogen
T1 sequence (Q92918 whole entry): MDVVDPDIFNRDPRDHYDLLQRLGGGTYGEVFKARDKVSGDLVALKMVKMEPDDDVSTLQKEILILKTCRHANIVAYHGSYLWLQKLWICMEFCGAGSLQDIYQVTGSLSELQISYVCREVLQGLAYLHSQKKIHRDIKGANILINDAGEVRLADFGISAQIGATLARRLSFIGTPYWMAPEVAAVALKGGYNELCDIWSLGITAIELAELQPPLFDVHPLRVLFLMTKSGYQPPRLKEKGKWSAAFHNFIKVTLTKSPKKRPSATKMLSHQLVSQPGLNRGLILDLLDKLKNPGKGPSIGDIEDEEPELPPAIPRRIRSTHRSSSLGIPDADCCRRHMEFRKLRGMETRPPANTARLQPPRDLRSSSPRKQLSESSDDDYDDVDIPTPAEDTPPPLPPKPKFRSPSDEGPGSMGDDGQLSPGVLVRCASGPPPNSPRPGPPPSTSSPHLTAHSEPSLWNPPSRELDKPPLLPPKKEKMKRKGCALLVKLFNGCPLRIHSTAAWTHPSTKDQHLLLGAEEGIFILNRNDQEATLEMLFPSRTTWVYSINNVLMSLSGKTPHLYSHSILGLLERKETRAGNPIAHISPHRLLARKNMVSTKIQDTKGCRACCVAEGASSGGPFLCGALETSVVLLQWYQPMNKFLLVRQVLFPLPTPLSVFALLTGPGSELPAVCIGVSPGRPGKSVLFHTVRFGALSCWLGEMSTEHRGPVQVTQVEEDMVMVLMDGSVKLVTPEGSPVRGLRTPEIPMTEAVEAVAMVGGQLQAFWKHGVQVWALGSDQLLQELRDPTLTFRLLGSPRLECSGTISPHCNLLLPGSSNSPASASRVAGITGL
From the text: MAP4K1 (HPK1) and relevant off-target enzymatic activity was monitored using the Perkin Elmer electrophoretic mobility shift technology platform—the EZReader 2. […] Within the linear, steady-state phase of the kinase enzymatic reaction, the mixed pool of phosphorylated (product) and non-phosphorylated (substrate) peptides was passed through the microfluidic system of the PerkinElmer EZ Reader 2, under an applied electric potential difference. The presence of the phosphate group on the product peptide provided a difference in mass and charge between that of the substrate peptide, resulting in a separation of the substrate and product pools in the sample (Perrin et al. 2010). As the product and substrate peptide mixture passes the lasers within the instrument, these pools are detected (λex=488 nm, λem=568 nm) and resolved as separate peaks. The ratio between these peaks reflects the activity of the compound at that concentration, in that well, under those conditions.
Inhibitors were dissolved in 100% DMSO at a stock concentration of 10 mM. A 100×, 10-point, 4-fold serial dilution of each inhibitor was created in 100% DMSO either manually or on a Hamilton STAR liquid handler, starting at a relevant concentration, usually 1 mM. A volume of 0.130 μL of each concentration was transferred to the relevant wells of a 384-well plate (Greiner 781 201) in duplicate using a TTPLabtech Mosquito nano-litre dispenser. Using a Multidrop Combi, the remaining constituents of the kinase reaction were added to the 130 nL of dosed compound as follows (see table below for final reaction details):
Enzyme activity assays at the ^APPKM for ATP or 1 mM ATP: In each well of a 384-well plate, 0.1-15 nM of untreated enzyme was incubated in a total of 13 μL of buffer (100 mM HEPES pH 7.5, 0.015% Brij 35, 10 mM MgCl2, 1 mM DTT) with 1.5 μM fluorescent peptide and 20-1000 μM ATP, at 25° C., for 60-180 minutes in the presence or absence of a dosed concentration series of compound (1% DMSO final concentration). The kinase reactions were stopped by the addition of 70 μl of Stop buffer (100 mM HEPES pH 7.5, 0.015% Brij 35, 35 mM EDTA and 0.2% of Coating Reagent 3 (Caliper Lifesciences)). The plates were read on a Caliper EZReader 2 as described above.

Row | EC50 [1] | IC50 (MAP4K1 (HPK1)) | Structure (SMILES)
1 | 47 nM | 0.42 nM | CC[C@@](C)(O)c1cnc(OC2CC2)c2cnc(Nc3ccc4c(n3)[C@@H](C)C(C)(C)OC4=O)cc12 (single isomer, unassigned) [Compound 31]
2 | 42 nM | 1.7 nM | CC[C@](C)(O)c1cnc(OC2CC2)c2cnc(Nc3ccc4c(n3)C3(CC3)[C@@H](C)OC4=O)cc12 (single isomer, unassigned) [Compound 27]
3 | 23 nM | 0.39 nM | CC[C@@](C)(O)c1cnc(O[C@H]2C[C@@H](S(C)(=O)=O)C2)c2cnc(Nc3ccc4c(n3)[C@@H](C)[C@H](C)OC4=O)cc12 (single isomer, unassigned) [Compound 61]
4 | 65 nM | 0.29 nM | C[C@@H]1c2nc(Nc3cc4c(C(C)(C)O)cnc(O[C@H]5C[C@@H](S(C)(=O)=O)C5)c4cn3)ccc2C(=O)OC1(C)C [Compound 60]
5 | 132 nM | 2.53 nM | CC[C@](C)(O)c1cnc(OC2CC2)c2cnc(Nc3ccc4c(n3)C(C)(C)[C@@H](C)OC4=O)cc12 [Compound 34]
6 | 169 nM | 2.09 nM | CC[C@](C)(O)c1cnc(OC2CC2)c2cnc(Nc3ccc4c(n3)C3(CC3)C(C)(C)OC4=O)cc12 (single isomer, unassigned) [Compound 40]
